Reference: patent US20060069132A1, “Azolecarboxamide herbicides” (priority 2004, published 2006)

Columns and labels:
giant foxtail = assay: Test B pre-/postemergence herbicide test; assay type: in vivo, Setaria faberi; details: for Foxtail, Giant plant response rating: postemergence, visual rating, scale 0 (no effect) to 100 (complete control)
Method in brief: (§1)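 Response was scored visually 13 to 15 days after treatment against untreated greenhouse controls, 0 meaning no effect and 100 complete control. Formulations (solvent mixture plus surfactant) went onto soil after planting, onto foliage of 1- to 4-leaf plants, and onto 2-leaf plants in a flooded paddy set including rice and barnyardgrass.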

pigweed = assay: Test B pre-/postemergence herbicide test; assay type: in vivo, Amaranthus retroflexus; details: for Pigweed plant response rating: postemergence, visual rating, scale 0 (no effect) to 100 (complete control)
Method in brief: as §1

Surinam grass = assay: Test C pre-/postemergence herbicide test; assay type: in vivo, Urochloa decumbens
Method in brief: (§2)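 Emerged plants at the 1- to 4-leaf stage (2–18 cm), or freshly planted seeds, received test chemicals in a non-phytotoxic solvent mixture with surfactant. Response was visually scored against controls after 12 to 14 days in the greenhouse, on a 0 (no effect) to 100 (complete control) scale.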

large crabgrass = assay: Test C pre-/postemergence herbicide test; assay type: in vivo, Digitaria sanguinalis
Method in brief: as §2

goosegrass = assay: Test C pre-/postemergence herbicide test; assay type: in vivo, Eleusine indica
Method in brief: as §2

kochia = assay: Test C pre-/postemergence herbicide test; assay type: in vivo, Kochia scoparia
Method in brief: as §2

lambsquarters = assay: Test C pre-/postemergence herbicide test; assay type: in vivo, Chenopodium album
Method in brief: as §2

common ragweed = assay: Test C pre-/postemergence herbicide test; assay type: in vivo, Ambrosia elatior; parameters: key to Plant response rating, Ragweed: 0 = no effect, 100 = complete control
Method in brief: as §2

[1] = 125 g ai/ha, 0 = no effect, 100 = complete control, preemergence
[2] = 500 g ai/ha, visual rating 0-100, 0 no effect, 100 complete control, preemergence
[3] = 62 g ai/ha, preemergence, scale 0 to 100
[4] = 125 g ai/ha, scale 0 (no effect) to 100 (complete control), visual, 12 to 14 days, preemergence
[5] = 250 g ai/ha, scale 0-100, preemergence
[6] = 500 g ai/ha, scale 0 to 100 (0 no effect, 100 complete control), visual, 12 to 14 days, preemergence
[7] = Postemergence, 500 g ai/ha, scale 0 to 100
[8] = Postemergence, 250 g ai/ha, scale 0 to 100, 0 no effect, 100 complete control
[9] = postemergence, 125 g ai/ha, scale 0 to 100
[10] = postemergence, 62 g ai/ha, scale 0 to 100

Structure (SMILES): CCc1nc(C(C)(C)C)sc1C(=O)Nc1cccc(C(=O)NCC2CC2)c1 [Compound 212]
- Foxtail, Giant plant response rating (0 to 100 scale) (giant foxtail; [1]): 70
- Plant response rating, Foxtail, Giant (giant foxtail; [2]): 100
- Foxtail, Giant plant response rating (giant foxtail; 125 g ai/ha): 10
- Foxtail, Giant plant response rating (giant foxtail; 500 g ai/ha): 40
- Pigweed plant response rating (0 to 100 scale) (pigweed; [1]): 100
- Plant response rating, Pigweed (pigweed; [2]): 100
- Pigweed plant response rating (pigweed; 125 g ai/ha): 60
- Pigweed plant response rating (pigweed; 500 g ai/ha): 90
- Plant response rating, Surinam Grass (Surinam grass; [3]): 0
- Plant response rating, Surinam Grass (Surinam grass; [4]): 0
- Plant response rating, Surinam Grass (Surinam grass; [5]): 5
- Plant response rating, Surinam Grass (Surinam grass; [6]): 20
- Surinam Grass plant response rating (Surinam grass; [7]): 50
- Plant response rating, Surinam Grass (Surinam grass; [8]): 20
- Plant response rating, Surinam Grass (Surinam grass; [9]): 5
- Plant response rating, Surinam Grass (Surinam grass; [10]): 0
- Plant response rating, Crabgrass, Large (large crabgrass; [3]): 60
- Plant response rating, Crabgrass, Large (large crabgrass; [4]): 80
- Plant response rating, Crabgrass, Large (large crabgrass; [5]): 85
- Plant response rating, Crabgrass, Large (large crabgrass; [6]): 100
- Crabgrass, Large plant response rating (large crabgrass; [7]): 20
- Plant response rating, Crabgrass, Large (large crabgrass; [8]): 20
- Plant response rating, Crabgrass, Large (large crabgrass; [9]): 10
- Plant response rating, Crabgrass, Large (large crabgrass; [10]): 0
- Plant response rating, Goosegrass (goosegrass; [3]): 10
- Plant response rating, Goosegrass (goosegrass; [4]): 60
- Plant response rating, Goosegrass (goosegrass; [5]): 95
- Plant response rating, Goosegrass (goosegrass; [6]): 100
- Goosegrass plant response rating (goosegrass; [7]): 30
- Plant response rating, Goosegrass (goosegrass; [8]): 25
- Plant response rating, Goosegrass (goosegrass; [9]): 10
- Plant response rating, Goosegrass (goosegrass; [10]): 10
- Plant response rating, Kochia (kochia; [3]): 85
- Plant response rating, Kochia (kochia; [4]): 85
- Plant response rating, Kochia (kochia; [5]): 90
- Plant response rating, Kochia (kochia; [6]): 95
- Kochia plant response rating (kochia; [7]): 90
- Plant response rating, Kochia (kochia; [8]): 90
- Plant response rating, Kochia (kochia; [9]): 80
- Plant response rating, Kochia (kochia; [10]): 80
- Plant response rating, Lambsquarters (lambsquarters; [3]): 100
- Plant response rating, Lambsquarters (lambsquarters; [4]): 100
- Plant response rating, Lambsquarters (lambsquarters; [5]): 100
- Plant response rating, Lambsquarters (lambsquarters; [6]): 100
- Lambsquarters plant response rating (lambsquarters; [7]): 100
- Plant response rating, Lambsquarters (lambsquarters; [8]): 90
- Plant response rating, Lambsquarters (lambsquarters; [9]): 90
- Plant response rating, Lambsquarters (lambsquarters; [10]): 80
- Plant response rating, Ragweed (common ragweed; [3]): 0
- Plant response rating, Ragweed (common ragweed; [4]): 0
- Plant response rating, Ragweed (common ragweed; [5]): 30
- Plant response rating, Ragweed (common ragweed; [6]): 95
- Plant response rating, Ragweed (common ragweed; [8]): 80
- Plant response rating, Ragweed (common ragweed; [9]): 60
- Plant response rating, Ragweed (common ragweed; [10]): 60
